Key:
[1] = target: T1, DatZ (S-2L HD phosphohydrolase) (Cyanophage S-2L, UniProt A0A7U3TCA2); assay: X-ray crystal structure; hydrolysis to dA seen by HPLC; format: binding; details: crystals grown with 10 mM EDTA, pH 7; active site; partially occupied Zn2+ in site A; HPLC assay: 20 mM Tris pH 7, 5 mM MgCl2, 37 °C
T1 construct: full length 175 aa, synthetic codon-optimised gene, N-terminal 14-His tag removed by TEV, E. coli host, hexamer (D3)

[2] = target: S-2L DatZ (dATP triphosphohydrolase, HD-domain phosphohydrolase of cyanophage S-2L) (cyanophage S-2L); assay: AUC + other: DLS; in vitro; stoichiometry worked out assuming a perfectly globular shape; conditions not given

Molecule | X-ray crystal structure; hydrolysis to dA seen by HPLC [1] | stoichiometry N (protomers per oligomer) [2]
Nc1ncnc2c1ncn2[C@H]1C[C@H](O)[C@@H](COP(=O)(O)OP(=O)(O)OP(=O)(O)O)O1 [dATP] | we solved a third structure of DatZ, this time with bound dATP (PDB ID: 6ZPC | –
S-2L DatZ (dATP triphosphohydrolase, HD-domain phosphohydrolase of cyanophage S-2L) (enzyme) | – | 5.9

Reference: article PMC8065100, “How cyanophage S-2L rejects adenine and incorporates 2-aminoadenine to saturate hydrogen bonding in its DNA” (Nature Communications, 2021)
